Laboratory results taken from patent publication US20120015901A1, “METHODS AND PREPARATIONS FOR PROTECTING CRITICALLY ILL PATIENTS” (priority 2009, published 2012).
Entries after “also recorded” stand apart in the source; their conditions may differ.

Columns and labels:
[1] = tested on: wild type yeast (BY4741) and null mutants; experiment: Yeast chronological aging, survival plating (clonogenicity); assay type: cell-based; details: for Pro-survival effect of spermidine application (compared to WT): 4 mM; for increase of survival: day 20, 4 mM spermidine
Method: Experiments were carried out in BY4741 (MATa his3Δ1 leu2Δ0 met15Δ0 ura3Δ0) and respective null mutants, obtained from Euroscarf. The double mutant Δiki3Δsas3 was generated according to Gueldener at al. (2002) Nucleic Acids Res. 30, e23 by using gene-specific URA3-knockout cassette, amplified by PCR with pUG72 as template (Lovaas & Carlin (1991) Free Radic Biol Med 11, 455-46.). […] All spe1 double mutant strains were obtained through mating and sporulation of BY4741 Δspe1 with the respective BY4742 ([…]) single mutant strains. Single and double mutant strains were verified for correct gene deletion by PCR and further checked for consistent auxotrophies. […] Strains were grown at 28° C. on SC medium containing 0.17% yeast nitrogen base (Difco), 0.5% (NH4)2SO4 and 30 mg/l of all amino acids (except 80 mg/l histidine and 200 mg/l leucine), 30 mg/l adenine, and 320 mg/l uracil with 2% glucose (SCD). […] To construct NHP6A-EGFP in pUG35-Ura (giving rise to a C-terminally tagged chimeric fusion protein under control of the met25-Promotor) the insert was amplified by PCR using genomic DNA from BY4741 as template and cloned into pUG35 using the EcoRI restriction site. The EGFP-ATG8 construct in pUG36-Ura (N-terminally tagged fusion protein) was similarly generated, using EcoRI and ClaI restriction sites.
In case of experiments with Δspe1 (FIG. 24 A-E), all strains were inoculated to 5·10^4 cells/ml. […] Therefore, for calculation of survival rates in experiments using Δiki3Δsas3, cell numbers of each sample were determined after two pulse of sonication on ice with Sonifier 250 from Benson (Duty Cycle: 35; Output Control: 2.5). Tests for apoptotic (TUNEL and Annexin V staining) and necrotic (PI staining) markers as well as markers for oxidative stress (DHE staining) were performed as described in Dod et al. (1982) Eur J Biochem 121, 401-405). For quantifications using flow cytometry (BD FACSAria), 30,000 cells were evaluated and analyzed with BD FACSDiva software. Spermidine (S4139, Sigma, Austria) and putrescine (P5780, Sigma, Austria; 1 mM final concentration) were added to stationary cultures at day 1 of the aging experiments (24 h after inoculation). 1 M aqueous stock solution of spermidine was stored in one use aliquots at −20° C. for no longer than 1 month. For adjustment of extracellular pH (pHex) to 6 (±0.5), the required amount of sodium hydroxide was added 30 h after inoculation. The pHex was maintained at approximately 6 (±0.5) throughout the aging.

C57BL/6 mice = experiment: Aging mice with spermidine in drinking water; assay type: in vivo
Source text: Male and female C57BL/6 mice were purchased from the Institut für Labortierkunde und-genetik, Himberg, Austria. All animals were used at an age between 12 and 16 weeks. All mice were kept and treated according to institutional guidelines and Austrian law and the experiments were approved by the responsible governmental commission. For each group, one male and two female mice were housed singly and fed ad libitum with regular food (pellets) and spermidine was supplemented to drinking water in concentrations of 0.3 and 3 mM for 200 days. Controls were given pure drinking water. Drinking water was replaced every 2-3 days and spermidine freshly added from 1 M aqueous stock (spermidine/HCl pH 7.4), which was kept at −20° C. for no longer than one month. […] At the end of the experiment, the animals were anesthetized by ether inhalation, and exsanguinated by heart puncture. Peripheral blood was allowed to clot for 20 min, and serum was obtained by centrifugation at 200 g for 10 min. The spleens and livers (shock frozen in liquid nitrogen and stored at −80° C. upon further use) were immediately excised. Serum was used for determination of free thiol groups by Ellmans' reaction (Ellman (1959) Arch Biochem Biophys 82, 70-77 and Riener et al. (2002) Anal Bioanal Chem 373, 266-276 (2002).) as described previously (Schraml et al. (2007) Exp Gerontol 42, 1072-1078).
Extraction of polyamines from mice liver tissue was performed according to the freeze/thaw-method described by (Minocha et al. (1994)J Plant Growth Regul 13, 187-193) with slight modifications. […]
Polyamines were determined according to the method described previously by Gianotti et al. (V. Gianotti et al. (2008) J Chromatogr A 1185, 296-300.). […]
Polyamines were detected in MRM mode using following transitions: spermidine (m/z 146->72, CE 34 eV), putrescine (m/z 89->72, CE 28 eV), bis(hexamethylene)-triamine as internal standard (m/z 216->100, CE 36 eV). […]

critically ill rabbits = experiment: Proof-of-concept outcome study, interim analysis (15 animals per group)
Method: Based on the pilot study, two doses of spermidine (30 and 100 mg/day) were selected to continue with.
An a priori planned interim analysis was performed after having included 15 animals per group, for selecting 1 spermidine-group to be completed next to the saline-group until 58 animals per group are included. After the interim analysis, the codes of the vials were changed, so that the proceeding of the study was again carried out blinded.
Based on the pilot study, two doses of spermidine are selected (30 and 100 mg/day) to continue with.
An interim analysis was performed after having included 15 animals per group, for selecting 1 spermidine-group that will be completed next to the saline-group until 58 animals per group are included. After the interim analysis, the codes of the vials are changed, so that the proceeding of the study is again carried out blinded.

## NCCCCNCCCN [spermidine]
[1]
  chronological life span of polyamine depleted cells: restored
[1]; deletions image P00002, HDA2, increased in early aging (fast death of controls), BUT diminished or absent day 15 to 25
  Pro-survival effect of spermidine application (compared to WT): increased during
[1]; single deletion of HDA1
  Pro-survival effect of spermidine application (compared to WT): not affected
[1]; single deletions image P00004, RXT2, SDS3, SAP30
  Pro-survival effect of spermidine application (compared to WT): not affected
[1]; single deletions image P00005, HDA3, HOS1, HOS2, HOS3, HOS4, RPD3, PHO23, SIR2, HST1, HST2, SET3, SIF2
  Pro-survival effect of spermidine application (compared to WT): not affected
[1]; single deletions shown as image P00001, survival increased during early aging
  Pro-survival effect of spermidine application (compared to WT): reduced
[1]; single deletions shown as image P00003, during early aging (day 5 to 15)
  Pro-survival effect of spermidine application (compared to WT): slightly reduced
[1]; BY4741 wild type, spermidine supplied at day 1 (4 mM)
  increase in yeast life span: up to 4 times
[1]; deletion of SIR2
  ability of spermidine to extend the chronological life span: did not abrogate
[1]; single deletion of HST1, HST2, HST3, HST4
  longevity upon spermidine application: did not affect longevity
[1]; wild type cells
  increase of survival: 5 fold
[1]; Δiki3 and Δsas3 strains
  anti-aging (pro-survival) effect of spermidine: partially abrogated
[1]; Δiki3Δsas3 cells
  increase of survival: 1.3 fold
[1]; Δsod2 mutant cells, 4 mM spermidine
  ROS accumulation and survival during aging: temporarily protects from excessive ROS accumulation and loss of survival
C57BL/6 mice; 3 mM spermidine in drinking water for 200 days
  increase of serum level of free thiol groups: ~30%
C57BL/6 mice; 0.3 and 3 mM in drinking water, 200 days (data not shown)
  food and body weight: remained unaffected
C57BL/6 mice; spermidine in drinking water, 200 days
  intracellular spermidine levels in liver cells: significantly increased
Critically ill rabbits; 7 days after injury, 30 and 100 mg/day, both doses equal, placebo >50%
  mortality: about one third; also recorded: much lower
Critically ill rabbits; kidney, compared to saline-treated animals
  rise in renal p62 levels (autophagic flux marker): attenuated
Critically ill rabbits; spermidine 30 mg/d or 100 mg/d
  plasma spermidine concentration: maintain or increase the plasma spermidine concentration to similar (supra)physiological levels
Critically ill rabbits; spermidine-treated animals, saline 18.8%, P 0.0461
  number of animals that developed a more than 3-fold rise in normal urea levels: 2.8%
Critically ill rabbits; spermidine-treated animals, saline 25%, P 0.0161
  number of animals that developed a more than 3-fold rise in normal creatinine levels: 2.8%
